Measurements from PubChem BioAssay AID330 (DTP/NCI, 2004).
Several values for one entry are separate records, joined by “and”; a condition that tells them apart may be missing. Equal values may be shown once. Toxic doses and inconclusive results are not listed. The calls were made as follows: active = survival T/C of 150% or more; inactive = T/C below 125% in these data.

System: P388 leukemia ip, CD2F1 mice, survival T/C
Assay: NCI In Vivo Anticancer Drug Screen. Data for tumor model P388 Leukemia (intraperitoneal) in CD2F1 (CDF1) mice
Conditions: endpoint: median survival time, higher = longer survival
Procedure, shortened: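 Mice carrying the transplanted tumor received test compound or vehicle. Survival was recorded in each group, and the value is the treated-group measurement divided by that of the vehicle-treated control group.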

[1] = dose: 50.0 mg/kg/injection, schedule: Q01DX005 (ip), vehicle: saline
[2] = dose: 100.0 mg/kg/injection, schedule: Q01DX005 (ip), vehicle: saline
[3] = dose: 200.0 mg/kg/injection, schedule: Q01DX005 (ip), vehicle: saline
[4] = dose: 50.0 mg/kg/injection, schedule: Q01DX005 (ip), vehicle: saline with Tween-80
[5] = dose: 100.0 mg/kg/injection, schedule: Q01DX005 (ip), vehicle: saline with Tween-80
[6] = dose: 200.0 mg/kg/injection, schedule: Q01DX005 (ip), vehicle: saline with Tween-80
[7] = dose: 60.0 mg/kg/injection, schedule: Q01DX005 (ip), vehicle: saline with Tween-80
[8] = dose: 120.0 mg/kg/injection, schedule: Q01DX005 (ip), vehicle: saline with Tween-80
[9] = dose: 100.0 mg/kg/injection, schedule: Q01DX009 (ip), vehicle: saline with Tween-80
[10] = dose: 200.0 mg/kg/injection, schedule: Q01DX009 (ip), vehicle: saline with Tween-80

Measured: T/C

CC[C@@]1(O)C[C@H](OC2CCC(OC3CC(OC(C)=O)C(OC(C)=O)C(C)O3)C(C)O2)c2c(O)c3c(c(O)c2[C@H]1C(=O)OC)C(=O)c1cccc(O)c1C3=O (stereo not given in full)
inactive: dose: 3.13 mg/kg/injection, schedule: Q04DX003 (ip), vehicle: distilled water + Tween-80 100 % of control | dose: 6.25 mg/kg/injection, schedule: Q04DX003 (ip), vehicle: distilled water + Tween-80 100 % of control | dose: 12.5 mg/kg/injection, schedule: Q04DX003 (ip), vehicle: distilled water + Tween-80 101 % of control | dose: 25.0 mg/kg/injection, schedule: Q04DX003 (ip), vehicle: distilled water + Tween-80 105 % of control | dose: 50.0 mg/kg/injection, schedule: Q04DX003 (ip), vehicle: distilled water + Tween-80 103 % of control

CC1(C)[C@H](O)CC[C@]2(C)[C@@H]1CC[C@]13C=C[C@](C)(C1)[C@H](O)C[C@H]32
inactive: dose: 1.88 mg/kg/injection, schedule: Q01DX005 (ip), vehicle: Klucel (hydroxypropylcellulose) (HPC) 96 % of control | dose: 3.75 mg/kg/injection, schedule: Q01DX005 (ip), vehicle: Klucel (hydroxypropylcellulose) (HPC) 94 % of control | dose: 7.5 mg/kg/injection, schedule: Q01DX005 (ip), vehicle: Klucel (hydroxypropylcellulose) (HPC) 91 % of control | dose: 15.0 mg/kg/injection, schedule: Q01DX005 (ip), vehicle: Klucel (hydroxypropylcellulose) (HPC) 95 % of control

NCCN1CCc2ccccc2C1
inactive: dose: 6.25 mg/kg/injection, schedule: Q04DX003 (ip), vehicle: saline 95 % of control | dose: 12.5 mg/kg/injection, schedule: Q04DX003 (ip), vehicle: saline 100 % of control | dose: 25.0 mg/kg/injection, schedule: Q04DX003 (ip), vehicle: saline 100 % of control

COC(=O)C(N)COC(=O)c1ccccc1 (stereo not given)
inactive: [1] 101 % of control | [2] 100 % of control | [3] 100 % of control

Oc1c(N=Nc2nn[nH]n2)ccc2ccccc12
inactive: [4] 105 % of control | [5] 97 % of control | [6] 99 % of control

COc1ccccc1-c1cn(O)c(=N)c(C#N)n1
inactive: dose: 6.25 mg/kg/injection, schedule: Q01DX009 (ip), vehicle: saline with Tween-80 89 % of control | dose: 12.5 mg/kg/injection, schedule: Q01DX009 (ip), vehicle: saline with Tween-80 94 % of control | dose: 25.0 mg/kg/injection, schedule: Q01DX009 (ip), vehicle: saline with Tween-80 94 % of control

Cc1nc2n(c1/C=N/O)CCS2
inactive: dose: 50.0 mg/kg/injection, schedule: Q01DX001 (ip), vehicle: Klucel (hydroxypropylcellulose) (HPC) 90 % of control | dose: 100.0 mg/kg/injection, schedule: Q01DX001 (ip), vehicle: Klucel (hydroxypropylcellulose) (HPC) 99 % of control | dose: 200.0 mg/kg/injection, schedule: Q01DX001 (ip), vehicle: Klucel (hydroxypropylcellulose) (HPC) 93 % of control

CC(CN1C(=O)CCC1=O)N1C(=O)CCC1=O (stereo not given)
inactive: [1] 100 % of control | [2] 103 % of control | [3] 100 % of control

CN=C1NS(=O)(=O)c2ccccc21
inactive: [4] 93 % of control | [5] 108 % of control | [6] 97 % of control

CC(=O)OC12CC[N+]3(C)CCCCC3C1=Nc1ccccc12 (stereo not given)
inactive: dose: 12.5 mg/kg/injection, schedule: Q01DX009 (ip), vehicle: saline 110 % of control | dose: 25.0 mg/kg/injection, schedule: Q01DX009 (ip), vehicle: saline 99 % of control

COC1=CC(=O)C(OC)=C(C2C(=O)N(C)c3ccccc32)C1=O (stereo not given)
inactive: dose: 7.5 mg/kg/injection, schedule: Q01DX005 (ip), vehicle: saline 111 % of control | dose: 15.0 mg/kg/injection, schedule: Q01DX005 (ip), vehicle: saline 121 % of control | [7] 117 % of control

NC(=O)c1nsc(-c2ccc([N+](=O)[O-])cc2)c1N
inactive: dose: 50.0 mg/kg/injection, schedule: Q01DX005 (ip), vehicle: Klucel (hydroxypropylcellulose) (HPC) 101 % of control | dose: 100.0 mg/kg/injection, schedule: Q01DX005 (ip), vehicle: Klucel (hydroxypropylcellulose) (HPC) 96 % of control | dose: 200.0 mg/kg/injection, schedule: Q01DX005 (ip), vehicle: Klucel (hydroxypropylcellulose) (HPC) 92 % of control

CCCCC/C([O-])=C1/C(=O)N(c2ccccc2)N=C1C.CCCCC/C([O-])=C1/C(=O)N(c2ccccc2)N=C1C.[Cu+2]
inactive: [7] 96 % of control | [8] 101 % of control

CN(C)CC(CN(C)C)C(=O)c1ccc(OC2OC(CO)C(O)C(O)C2O)cc1 (stereo not given)
inactive: dose: 60.0 mg/kg/injection, schedule: Q01DX005 (ip), vehicle: saline 103 % of control | dose: 120.0 mg/kg/injection, schedule: Q01DX005 (ip), vehicle: saline 99 % of control | dose: 240.0 mg/kg/injection, schedule: Q01DX005 (ip), vehicle: saline 105 % of control

Nc1ccc(-c2ccc3ccccc3n2)cc1
inactive: dose: 3.13 mg/kg/injection, schedule: Q01DX009 (ip), vehicle: Klucel (hydroxypropylcellulose) (HPC) 103 % of control | dose: 6.25 mg/kg/injection, schedule: Q01DX009 (ip), vehicle: Klucel (hydroxypropylcellulose) (HPC) 101 % of control | dose: 12.5 mg/kg/injection, schedule: Q01DX009 (ip), vehicle: Klucel (hydroxypropylcellulose) (HPC) 106 % of control | dose: 25.0 mg/kg/injection, schedule: Q01DX009 (ip), vehicle: Klucel (hydroxypropylcellulose) (HPC) 88 % of control

CCOC(=O)c1cc(-c2ccc(Cl)cc2)nc2c(Cl)cc(Cl)cc12
inactive: [9] 93 % of control | [10] 94 % of control | dose: 400.0 mg/kg/injection, schedule: Q01DX009 (ip), vehicle: saline with Tween-80 88 % of control

CCCCCC(C(=O)O)(c1ccccc1)c1ccccc1
inactive: [4] 106 % of control | [5] 106 % of control | [6] 106 % of control

COc1cc(C2c3cc(O)c(OC)cc3CC(O)(CO)C2CO)ccc1O (stereo not given)
inactive: dose: 23.75 mg/kg/injection, schedule: Q01DX005 (ip), vehicle: Klucel (hydroxypropylcellulose) (HPC) 100 % of control | dose: 47.5 mg/kg/injection, schedule: Q01DX005 (ip), vehicle: Klucel (hydroxypropylcellulose) (HPC) 95 % of control | dose: 95.0 mg/kg/injection, schedule: Q01DX005 (ip), vehicle: Klucel (hydroxypropylcellulose) (HPC) 86 % of control | dose: 190.0 mg/kg/injection, schedule: Q01DX005 (ip), vehicle: Klucel (hydroxypropylcellulose) (HPC) 90 % of control

COC(=O)[C@@H]1CON(Cc2ccccc2)C1CC1(C)OCCO1 (stereo not given in full)
inactive: [7] 103 % of control | [8] 104 % of control | dose: 240.0 mg/kg/injection, schedule: Q01DX005 (ip), vehicle: saline with Tween-80 109 % of control

CC(C)(COS(C)(=O)=O)COS(C)(=O)=O
inactive: dose: 50.0 mg/kg/injection, schedule: Q01DX009 (ip), vehicle: saline 107 % of control | dose: 50.0 mg/kg/injection, schedule: Q01DX009 (ip), vehicle: suspension in saline 96 % of control | dose: 100.0 mg/kg/injection, schedule: Q01DX009 (ip), vehicle: saline 91 % of control | dose: 100.0 mg/kg/injection, schedule: Q01DX009 (ip), vehicle: suspension in saline 101 % of control and 91 % of control | dose: 200.0 mg/kg/injection, schedule: Q01DX009 (ip), vehicle: saline 110 % of control | dose: 200.0 mg/kg/injection, schedule: Q01DX009 (ip), vehicle: suspension in saline 104 % of control and 92 % of control | dose: 400.0 mg/kg/injection, schedule: Q01DX009 (ip), vehicle: suspension in saline 112 % of control and 90 % of control

COC1/C=C/OC2(C)Oc3c(C)c(O)c4c(O)c(c(/C=N/n5c(=O)[nH]c6ccccc6c5=O)c(O)c4c3C2=O)NC(=O)/C(C)=C\C=C\C(C)C(O)C(C)C(O)C(C)C(OC(C)=O)C1C (stereo not given)
inactive: dose: 50.0 mg/kg/injection, schedule: Q01DX009 (ip), vehicle: saline with Tween-80 107 % of control | [9] 108 % of control | [10] 106 % of control
